Measurements as given in patent US20020077296A1, “High-throughput screening method” (priority 2000, published 2002).
Read-outs that look alike come from different tables or passages of the source.

Key:
[1] = biological target: T1, Rho-kinase (Bos taurus, UniProt Q28021); assay: antibody plate assay: Rho-kinase immobilized from bovine brain extract, phosphorylation of Histone HF2A; format: biochemical; details: Histone HF2A substrate, [33P]ATP, reaction time four hours
T1 construct: thus detecting the band of Rho-kinase at around 160 kDa; tissue Shiraimatsu; host or cells: bovine brain (cerebral gray matter) extract
T1 sequence (Q28021 whole entry): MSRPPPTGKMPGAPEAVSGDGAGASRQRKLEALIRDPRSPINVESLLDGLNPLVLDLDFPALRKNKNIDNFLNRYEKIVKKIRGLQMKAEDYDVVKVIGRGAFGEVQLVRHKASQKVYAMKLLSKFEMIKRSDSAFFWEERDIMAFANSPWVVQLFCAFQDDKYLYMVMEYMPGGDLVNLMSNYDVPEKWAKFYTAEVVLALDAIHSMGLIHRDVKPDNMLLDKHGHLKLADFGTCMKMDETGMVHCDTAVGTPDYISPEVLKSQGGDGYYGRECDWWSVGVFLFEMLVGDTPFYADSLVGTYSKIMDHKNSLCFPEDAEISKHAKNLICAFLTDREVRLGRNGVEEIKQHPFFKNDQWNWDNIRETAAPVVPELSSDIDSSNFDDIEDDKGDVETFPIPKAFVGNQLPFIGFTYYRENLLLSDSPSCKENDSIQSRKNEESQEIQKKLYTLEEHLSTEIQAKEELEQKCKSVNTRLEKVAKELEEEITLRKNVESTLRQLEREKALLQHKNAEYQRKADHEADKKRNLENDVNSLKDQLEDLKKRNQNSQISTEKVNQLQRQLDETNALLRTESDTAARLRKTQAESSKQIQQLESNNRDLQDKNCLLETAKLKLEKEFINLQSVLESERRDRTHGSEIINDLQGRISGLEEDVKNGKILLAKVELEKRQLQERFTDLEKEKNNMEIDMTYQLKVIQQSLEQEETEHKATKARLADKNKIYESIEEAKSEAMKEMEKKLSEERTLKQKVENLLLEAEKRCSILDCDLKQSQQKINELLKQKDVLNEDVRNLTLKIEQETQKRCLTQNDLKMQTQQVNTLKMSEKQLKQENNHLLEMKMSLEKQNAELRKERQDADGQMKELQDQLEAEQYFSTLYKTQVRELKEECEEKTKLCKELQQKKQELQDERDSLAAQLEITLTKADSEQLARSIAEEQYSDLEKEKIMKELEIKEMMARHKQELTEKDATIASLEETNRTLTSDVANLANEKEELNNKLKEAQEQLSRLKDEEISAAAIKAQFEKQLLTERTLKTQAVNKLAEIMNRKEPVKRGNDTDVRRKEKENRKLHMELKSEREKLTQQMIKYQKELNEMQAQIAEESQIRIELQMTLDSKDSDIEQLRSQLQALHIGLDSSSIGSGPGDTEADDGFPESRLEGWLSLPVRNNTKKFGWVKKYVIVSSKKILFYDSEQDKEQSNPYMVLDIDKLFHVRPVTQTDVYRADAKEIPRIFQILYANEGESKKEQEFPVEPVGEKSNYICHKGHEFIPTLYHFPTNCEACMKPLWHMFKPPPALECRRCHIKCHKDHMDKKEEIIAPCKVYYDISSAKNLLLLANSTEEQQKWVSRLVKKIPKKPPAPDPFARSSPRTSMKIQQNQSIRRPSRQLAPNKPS
Procedure: After allowed to stand for 1.5 hours at room temperature, the solution was removed, and 200 μl of blocking solution in which Block Ace (DAINIPPON PHARMACEUTICAL) UK-B25 was diluted four times with PBS(−)) was added into the plate, followed by stirring the solution therein. The plate was allowed to stand for additional 1.5 hours at room temperature, washed three times with 200 μl of PBST (0.05% Tween20/PBS(−)), and added with a 0.1 μg/50 μl solution of anti-Rho-kinase antibody in PBS(−).
(§1) ATP/30 μl. […] The reaction time was four hours.
(§2) SPA Multiscreen method was used for the estimation of the plate.
The inhibitory activity of these inhibitors was determined based on the radioactivity showing the phosphorylation that was detected in the antibody plate assay system, and compared to those previously reported, so that the plate was estimated in terms of the usefulness in a screening system for discovering inhibitors.

[2] = biological target: T2, ROKa/ROK-II, active Cat (Rattus norvegicus, UniProt Q62868); assay: phosphorylation assay with ROKa/ROK-II, active Cat (Upstate) under a similar condition; format: biochemical
T2 construct: purchased Upstate
T2 sequence (Q62868 11-552 limits assumed): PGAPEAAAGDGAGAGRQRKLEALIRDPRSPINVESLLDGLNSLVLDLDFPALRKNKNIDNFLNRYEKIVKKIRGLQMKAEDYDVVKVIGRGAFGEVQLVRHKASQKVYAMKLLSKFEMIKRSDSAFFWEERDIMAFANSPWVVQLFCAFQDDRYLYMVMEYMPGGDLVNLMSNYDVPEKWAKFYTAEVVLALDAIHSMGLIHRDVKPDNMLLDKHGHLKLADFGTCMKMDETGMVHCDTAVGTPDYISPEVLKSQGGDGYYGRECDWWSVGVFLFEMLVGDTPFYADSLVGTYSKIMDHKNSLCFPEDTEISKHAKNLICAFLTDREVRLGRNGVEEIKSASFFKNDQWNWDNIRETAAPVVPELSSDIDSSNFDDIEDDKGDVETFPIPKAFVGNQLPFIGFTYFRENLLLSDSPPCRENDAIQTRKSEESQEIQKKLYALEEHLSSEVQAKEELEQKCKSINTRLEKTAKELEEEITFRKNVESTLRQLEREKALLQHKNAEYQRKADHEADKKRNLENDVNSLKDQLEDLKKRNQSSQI
Procedure: as §1, §2

[3] = biological target: Rho-kinase; details: read-out: Ki value; cited from earlier work
[4] = test system: Rho-kinase; assay: inhibition of the binding of Rho-kinase to anti-Rho-kinase antibody-immobilized plate; design: species or system bovine
Procedure: Fifty μl of the dilution of the rabbit anti-goat IgG/Fc (Nippon Chemi-Con Corp.) in PBS(−) was pipetted into Immunoplate II (Nunc, 442404, High binding capacity) or a fluorescence/luminescence solid assay plate (COSTAR, 3922 white). After allowed to stand for 1.5 hours at room temperature, the solution was removed, and 200 μl of blocking solution in which Block Ace (DAINIPPON PHARMACEUTICAL) UK-B25 was diluted four times with PBS(−)) was added into the plate, followed by stirring the solution therein. The plate was allowed to stand for additional 1.5 hours at room temperature, washed three times with 200 μl of PBST (0.05% Tween20/PBS(−)), and added with a 0.1 μg/50 μl solution of anti-Rho-kinase antibody in PBS(−). After allowed to stand for additional 1.5 hours at room temperature, the plate was washed three times with 200 μl of PBST. Into the plate was placed 50 μl of 1.5 mg/ml bovine brain lysates, and the resultant plate was allowed to stand overnight at 4° C. This was washed twice with 200 μl of PBST, and once with 200 μl of PBS(−) to provide an immobilized plate.
Various concentrations of the antigen peptide used to prepare the anti-Rho-kinase antibody were supplemented to the bovine brain extract, and then Rho-kinase in the extract was immobilized onto the plate under the optimal conditions as found in Example 5. […]

C[C@@H](N)[C@H]1CC[C@H](C(=O)Nc2ccncc2)CC1 [Y-27632]
IC50 ([1]; IC50 value, bovine brain): 350 nM | IC50 [2]: 790 nM | Ki [3]: 140 nM

IQQNQSIRRPSRQLAPNKPS [antigen peptide, 20 amino acid C-terminal partial peptide of Rho-kinase used to prepare the anti-Rho-kinase antibody]
inhibition of the immobilization of Rho-kinase ([4]; 3.5 μM of the peptide): ~100% | IC50 ([4]; peptide supplemented to bovine brain extract, read-out: IC50 value, inhibition of immobilization of Rho-kinase): 350 nM

COc1ccc2c(c[n+](C)c3c4cc5c(cc4ccc23)OCO5)c1OC [chelerythrine]
IC50 ([1]; read-out: IC50 value, bovine brain): 20000 nM | IC50 ([2]; similar assay condition, read-out: IC50 value, ROKa/ROK-II active Cat): 11000 nM
